According to patent US9522942B2, “Analogs of temporin-SHa and uses thereof” (UNIVERSITE PIERRE ET MARIE CURIE (PARIS 6), priority 2009, dated 2016):
Entries after “also recorded” stand apart in the source; their conditions may differ. Ends that are not written are not given here.

What was measured:
[1] = test system: Candida parapsilosis (ATCC 22019); experiment: Antifungal growth inhibition test in YPD broth (MIC); type: cell-based; conditions: YPD medium, 30° C.
Procedure: Fungal strains were incubated at 30° C.

[2] = biological target: Leishmania infantum promastigotes; type: cell-based; conditions: 72 hours at 26° C., luciferase luminescence (FIG. 2 B), read-out: IC50, promastigote form
Procedure: The antiparasitic activity of the peptides was evaluated on two forms of the parasite Leishmania infantum, the promastigote form and the amastigote form.
The tests of anti-Leishmania activity were carried out with a Leishmania infantum cell line αNEO-αLUC This cell line was obtained by transforming Leishmania infantum strain MHOM/MA/67/ITMAP-263 with the vector pGM αNEO-αLUC containing the luciferase reporter gene (LUC) and the neomycin resistance gene (NEO) such as described in Roy et al. (2000). It was maintained in culture in its two forms, promastigote and amastigote.
Leishmania infantum promastigotes were maintained at 26° C. by one or two weekly passages depending on the number of parasites in the inoculum, in SDM 79 medium supplemented with 10 to 20% decomplemented foetal calf serum and […] porcine haemin and in the presence of 100 U/mL penicillin and 100 μg/mL streptomycin (Brun & Shonenberger, 1979). […] Cell densities were determined by flow cytometry in the presence of propidium iodide on a Facscan cytometer (Excalibur, Becton-Dickinson, Ivry, France).
Emitted luminescence was measured with a luminescence plate reader (Victor, PerkinElmer). […]
The percentage growth was calculated according to the following formula: % growth=[(L mean−bgd)peptide×100]/(L mean−bgd)control […]

[3] = test system: human monocyte cell line THP-1; conditions: THP-1, 72 hrs, MTT test (FIG. 3), at antimicrobial concentrations
Procedure: The cytotoxic activity of the antimicrobial peptides was determined on a human monocyte cell line THP-1. Cells were cultured in RPMI medium (10% FCS, 100 U/mL penicillin, 100 μg/mL streptomycin) until reaching exponential growth phase. After counting in a Thoma counting chamber, cell density was adjusted to 6.25×10^5 cells/mL in RPMI 1640 medium. Five-fold concentrated solutions of antimicrobial peptides were prepared in this RPMI medium (300 to 4.7 μM).
Monocytes were aliquoted at 80 μL of cell suspension per well (corresponding to 5×10^4 monocytes/well or 5×10^5 cells/mL final) and mixed with 20 μL of peptide solution (60 to 0.94 μM final concentration). Negative and positive controls were carried out according to the same protocol as for the tests of anti-Leishmania activity. Experiments were done in triplicate for each peptide concentration. Cells were incubated at 37° C., in a 5% CO2 atmosphere for 72 hrs.
After 72 hours, the number of viable THP-1 cells was calculated indirectly by the MTT test (Mosmann, 1983). […] Blue formazan can be detected spectrophotometrically at 570 nm.
A 10 mg/mL MTT solution in PBS buffer (pH 7.4), filtered on a 0.45 μm filter, was aliquoted at 10 μL per well. Plates were then incubated for 4 hrs at 37° C. […] The OD at 570 nm of each well was then measured (Victor plate reader, PerkinElmer) to calculate the IC50.

[4] = test system: Enterococcus faecalis (ATCC 29212); conditions: 18 hrs at 37° C., LB medium
Procedure: (§5) The following strains were used for the antibacterial activity tests: Escherichia coli (ATCC 25922 and ATCC 35218), Staphylococcus aureus (ATCC 25923), Enterococcus faecalis (ATCC 29212), Bacillus megaterium and Pseudomonas aeruginosa (ATCC 27853).
(§6) For each strain, a standard inoculum of 10^5 to 10^6 bacteria/mL (exponential growth phase) was prepared. To this end, a colony isolated on LB agar previously inoculated with one of the strains was cultured in 10 mL of LB broth medium. Liquid cultures were then incubated for 2 to 3 hrs at 37° C. with shaking for the bacteria to reach exponential growth phase. Each bacterial suspension was diluted in LB medium to an OD630nm of 0.01 which corresponds to a concentration of 10^5-10^6 cfu/mL (cfu: colony forming unit).
(§7) The minimum inhibitory concentration (MIC) of each peptide was determined by a test of growth inhibition in broth medium. […] The test was performed in a sterile 96-well microtiter plate. A series of increasing concentrations of each peptide (1 to 400 μM) was first prepared in sterile MilliQ water containing 5% dimethyl sulphoxide (DMSO). […] 50 μL of peptide were aliquoted into each well with 50 μL of bacterial suspension (10^5-10^6 cfu/mL). The microtiter plate was then incubated for 18 hrs at 37° C. with shaking. Bacterial growth was determined by measuring OD at 630 nm (turbidity) on a plate reader. […]

[5] = test system: Escherichia coli (ATCC 25922); conditions: 18 hrs at 37° C., LB medium
Procedure: as §5, §6, §7

[6] = test system: Escherichia coli (ATCC 35218); conditions: 18 hrs at 37° C., LB medium
Procedure: as §5, §6, §7

Hemolytic test = type: cell-based; conditions: erythrocytes (washed red blood cells), pH 7.4; human erythrocytes, 1 hr at 37° C., concentration inducing hemolysis of 50% of the cells; read-out: LC50 erythrocytes
Procedure: (§1) The hemolytic activity of the antimicrobial peptides was assessed using human erythrocytes from healthy donors. Red blood cell hemolysis is manifested by the release into the reaction medium of hemoglobin, the concentration of which is determined spectrophotometrically at 450 nm.
(§2) Red blood cells were separated from plasma and white blood cells by centrifugation of human blood (900 g, 10 min). The pellet containing red blood cells was washed three times with PBS buffer, pH 7.4. After counting on a Malassez cell, a stock solution of 2.10^7 red blood cells/mL was prepared in the same buffer. A series of concentrations of the peptides to be tested was prepared (1 to 200 μM).
(§3) The test was carried out as follows: 100 μL of the different peptide concentrations were added to 100 μL of the red blood cell suspension. After 1 hr of incubation at 37° C. followed by centrifugation (12,000 g, 15 sec), absorbance of the supernatant was measured at 450 nm. The negative control for this test (0% hemolysis) contained 100 μL of PBS buffer in place of the peptide solution. The positive control (100% hemolysis) contained 100 μL of 0.1% Triton in place of the peptide solution.
(§4) The LC50 value obtained is the mean of three experiments carried out in triplicate and corresponds to the peptide concentration inducing hemolysis of 50% of the cells.

[7] = test system: Candida albicans (ATCC 90028); conditions: YPD medium, 30° C.
Procedure: (§8) The minimum inhibitory concentration (MIC) of each peptide was determined by a test of growth inhibition in broth medium. […] The test was performed in a sterile 96-well microtiter plate. A series of increasing concentrations of each peptide (1 to 400 μM) was first prepared in sterile MilliQ water containing 5% dimethyl sulphoxide (DMSO). […] 50 μL of peptide were aliquoted into each well with 50 μL of bacterial suspension (10^5-10^6 cfu/mL). The microtiter plate was then incubated for 18 hrs at 37° C. with shaking. Bacterial growth was determined by measuring OD at 630 nm (turbidity) on a plate reader. Tests were carried out in triplicate for each peptide concentration.
(§9) These strains were first grown on YPD agar for a minimum of 48 hrs. Yeast suspensions were then prepared, exactly as for bacteria, and adjusted to 10^5-10^6 cfu/mL in YPD broth medium.
(§10) The antifungal activity test corresponds to the growth inhibition test in broth medium used for the bacteria (see above) in which LB medium was replaced by YPD medium. Fungal strains were incubated at 30° C.

[8] = test system: Pseudomonas aeruginosa (ATCC 27853); experiment: Growth inhibition test in broth medium (MIC); type: cell-based; conditions: 18 hrs at 37° C., LB medium
Procedure: as §5, §6, §7

[9] = test system: Staphylococcus aureus (ATCC 25923); conditions: 18 hrs at 37° C., LB medium
Procedure: as §5, §6, §7

Bacillus megaterium = conditions: 18 hrs at 37° C., LB medium
Procedure: as §5, §6, §7

Saccharomyces cerevisiae = conditions: YPD medium, 30° C.
Procedure: as §8, §9, §10

Gram-negative strains = conditions: summary in text for all Gram-negative strains tested
Procedure: as §5, §6, §7

human erythrocytes = experiment: Hemolytic test; type: cell-based; conditions: relative to temporin-SHa
Procedure: as §1, §2, §3, §4

Procedure for Escherichia coli ML-35p: as §6, §8
The growth inhibition negative control was obtained by replacing the solution containing the peptide with 50 μL of sterile MilliQ water containing 5% DMSO. […]

Substance | MIC [1] [µM] | IC50 [2] [µM] | Cytotoxic effect on monocytes [3] | MIC [4] [µM] | MIC [5] [µM] | MIC [6] [µM] | HC50 at 1 hr (Hemolytic test) [µM] | MIC [7] [µM] | MIC (Escherichia coli ML-35p) [µM] | MIC [8] [µM] | MIC [9] [µM] | MIC (Bacillus megaterium) [µM] | MIC (Saccharomyces cerevisiae) [µM] | MIC, all Gram-negative strains tested (Gram-negative strains) [µM] | Change in hemolytic activity as compared with temporin-SHa (human erythrocytes)
FLSGIVGMLGKLF-NH2 [temporin-SHa, F-L-S-G-I-V-G-M-L-G-K-L-F] | 31.25 | ~20 | not cytotoxic | 10 | 10 | 10 | 25 | 15 | 6.25 | 31.25 | 3 | 2.5 | 7.9 |  | 
FLKGIVGMLGKLF-NH2 [[K^3]temporin-SHa] |  | ~10 | not cytotoxic | 10 | 3 | 3 | 50 | 12.5 | 3 | 3 | 3 | 1.5 | 6.25 | 3 | twofold decrease; also recorded: twofold reduction
